Results on eleven compounds are retold here after patent publication US11685711B2, “Carbon monoxide-releasing molecules triggered by physiological stimuli” (Georgia State University Research Foundation, Inc., priority 2017, dated 2023).

For data set [1], the system named is Raw 264.7 cells. Put plainly: Cytotoxicity against Raw 264.7 cells (Cell Counting Kit-8). To be noted: concentrations up to 50 μM, 24 h of incubation. Type of data set: cell-based. Here is the method:
All CO prodrugs were initially screened for their cytotoxicity against Raw 264.7 cells. […] Then RAW 264.7 cells were incubated in DMEM containing 1% DMSO and compounds (0-50 μM) for 24 hours. Then 10 μL of Cell Counting Kit-8 solution was added to each well and incubated for another three hours at 37° C. The absorbance at […] was measured by using a microplate reader.
A general note: Tetrazolium assays rely on reduction of a dye to a coloured formazan, in cell work by metabolically active cells.

A short description of data set [2]: physchem. Type of data set: physicochemical. Here is the method:
A solution of 10/11 (20 μM) and NaClO (40 or 60 μM) in 10% of ACN in PBS (pH=7.4) was sealed and incubated at 37° C. At each defined time point, 500 μL of the reaction mixture was taken out and added into a vial containing Na2SO3 (100 μL, 250 mM) to quench the reaction. The resulting solution was then analyzed by HPLC (column: Waters C18 3.5 μM, 4.6×100 mm, injection loop volume: 20 μL). CO release was determined by monitoring the formation of the product and the consumption of the reaction intermediate as in the case of 10 or prodrug 11. The mobile phase was acetonitrile ACN/H2O (containing 0.05% trifluoroacetic acid).

Data set [3] relates to Hela cells. Briefly: Crystal violet assay, co-treatment with doxorubicin. The settings on record: 24 h; for synergistic effects with Dox in killing Hela cells: co-treatment with Dox.
Procedure: (§2) Towards this end, Hela cells and H9C2 cells were co-treated with 11/12 and Dox for 24 h. Then the cells were subjected to crystal violet assay for cytotoxicity evaluation. The cells treated with 11/12, or Dox only were used as controls. Additionally, the cells co-treated with Dox and compound 10a/11a/11b were employed as additional controls as well.
(§3) Hela cells and H9C2 cells were seeded in 96-well plates and cultured in DMEM supplemented with 10% FBS and 1% penicillin/streptomycin at 37° C. under 5% CO2 for 24 h. The cells were either incubated with doxorubicin (1% DMSO DMEM solution, 0 to 4 μM) or a mixture of doxorubicin and indicated compounds (1% DMSO DMEM solution, 0 to 4 μM for doxorubicin) for 24 h. After removal of the medium, the plate was washed with 150 μL/well of PBS and the cell was fixed with 4% paraformaldehyde for 1 h at room temperature. The solution in the well was then removed and 100 μL of 0.5% crystal violet staining solution was added to each well. After incubation for 15 min at room temperature, the plate was washed with 200 μL of DI water for each well twice, followed by the addition of 100 μL/well of acetic acid solution (33%) to dissolve the dye. Absorbance at 615 nm was then measured by using a Perkin Elmer 1420 multi-label counter. Cell viability was measured and the results were normalized to the vehicle group. The experiment was triplicated and the results are expressed as mean±SD (n=3).
Data set [4] deals with H9C2 cells. Put plainly: Crystal violet assay, co-treatment with doxorubicin and cytotoxicity. It counts as cell-based.
Procedure: as §2
Hela cells and H9C2 cells were seeded in 96-well plates and cultured in DMEM supplemented with 10% FBS and 1% penicillin/streptomycin at 37° C. under 5% CO2 for 24 h. The cells were either incubated with doxorubicin (1% DMSO DMEM solution, 0 to 4 μM) or a mixture of doxorubicin and indicated compounds (1% DMSO DMEM solution, 0 to 4 μM for doxorubicin) for 24 h. After removal of the medium, the plate was washed with 150 μL/well of PBS and the cell was fixed with 4% paraformaldehyde for 1 h at room temperature. The solution in the well was then removed and 100 μL of 0.5% crystal violet staining solution was added to each well. […] Absorbance at 615 nm was then measured by using a Perkin Elmer 1420 multi-label counter. Cell viability was measured and the results were normalized to the vehicle group. The experiment was triplicated and the results are expressed as mean±SD (n=3).
The test system of data set [5] is Raw264.7 cells. Put plainly: Fluorescent imaging of CO release of 11 with COP-1, with or without LPS. Type of data set: cell-based. The settings on record: Raw 264.7 cells, 11 50 μM + COP-1 1 μM + LPS 1 μg/mL, 5 hours. Here is the method:
For imaging studies of 11 in transformed macrophage cells, RAW 264.7 cells were seeded in 6-well plates one day before the imaging experiment. Compounds were dissolved in DMSO as stock solution. Final concentration of 1 μM COP-1, 50 μM of 11 and 1 μg/mL of LPS were added into the cell culture. The cells without 11 was used as the negative control. After adding the compound, the cells were incubated at 37° C. for 5 hours. The cells were then fixed and taken for fluorescent images under the FITC channel (excitation: 490 nm, emission: 525 nm) using a Zeiss fluorescent microscope.

The subject of data set [6] is H9C2 cells. Briefly: Fluorescent imaging of CO release of 11 with COP-1. The settings on record: 11 50 μM + COP-1 1 μM. Type of data set: cell-based. The method, then: (§1) Hela or H9C2 cells were seeded in 6-well plates one day before the imaging experiment. Compound 11 was dissolved in DMSO as stock solution. Final concentrations of 1 μM for COP-1 and […] were added into the cell culture. The sample without 11 was used as the negative control. After adding the compound, the cells were incubated at 37° C. for 5 hours. The cells were then fixed and taken for fluorescent images under the FITC channel (excitation: 490 nm, emission: 525 nm) using a Zeiss fluorescent microscope.

Data set [7] concerns Hela cells. Briefly: Fluorescent imaging of CO release of 11 with COP-1. Type of data set: cell-based. The settings on record: 11 50 μM + COP-1 1 μM, 5 hours. The method, then:
as §1

The nature of data set [8]: Sensitivity of 11 to various ROS (HPLC, formation of 11a). Type of data set: physicochemical. The method, then:
The CO release profiles in the absence/presence of ROS was studied using HPLC to monitor the consumption of 10/11 and the formation of 10a/11a. Various ROS solutions were prepared according to literature procedures. A solution of 11 (400 μL, 1 mM in acetonitrile (ACN) was added to 20 mL of PBS (pH 7.4, 10 mM). […] Additional ACN was added to make the final solution contain 10% of ACN. The resulting mixture was incubated at 37° C. for 30 min. CO release was monitored by the formation of 11a using HPLC. The experiment was triplicated, and the results are reported as mean±SD (n=3).

The nature of data set [9]: Stability in the absence of ROS (HPLC). Type of data set: physicochemical. Here is the method: Initially, 11 was employed to screen its sensitivity towards various ROS. […] The stability was tested by adding a solution of 11/12 (800 μL, 500 μM in acetonitrile) was added to 20 mL of PBS (pH 7.4, 10 mM) in a vial. Additional acetonitrile was added to make the final concentration of ACN 10% for all solutions. The resulting solution was incubated at 37° C. for 48 h. The solution was then analyzed using HPLC. All the experiments were triplicated, and the results are reported as mean±SD (n=3).

Data set [10] has as its system Hela cells.
Procedure: as §2, §3
The subject of data set [11] is porcine liver esterase. Put plainly: CO release kinetics in the presence of porcine liver esterase (HPLC). It counts as in vitro ADME. Here is the method: […] At each defined time point, 250 μL of the reaction mixture was taken out and added into a vial containing 500 μL ethanol. The mixture was incubated in an acetone dry ice bath (−78° C.) for 5 min, and centrifuged for 9 min (14.5×1000 rp) to precipitate the esterase out. The resulting supernatant was then analyzed by HPLC (column: Waters C18 3.5 μM, 4.6×100 mm, injection loop volume: 20 μL). […] The mobile phase was acetonitrile CH3CN/H2O (containing 0.05% trifluoroacetic acid).

A short description of data set [12]: CO release kinetics of 38 with or without H2O2 (HPLC). The settings on record: 20% of DMSO/PBS, 37° C., read-out: beta-elimination half-life (converted). Type of data set: physicochemical. Here is the method:
Solutions of 38 (20 μM) in 20% of DMSO/PB S was incubated with or without H2O2 (270 μM) at 37° C. Aliquots were taken for HPLC analysis to determine CO release kinetics by monitoring the formation of compound 25. HPLC was conducted using a Waters C18 column (3.5 LM, 4.6x 100 mm) equipped with a 20-μL injection loop and acetonitrile:water (85:15) as the mobile phase.

The structures appear in SMILES notation. Read-outs that look alike come from different tables or passages of the source.

The half-life is the time needed for the level to fall by half in the phase considered. Usually viability stands for the share of living cells, or the viability signal relative to a control.

On to `C[C@@]12C(=O)[C@](C)(C(c3ccccc3)=C1c1ccccc1)C(S(=O)(=O)c1ccccc1)C2C=O` (stereo partly drawn) [Compound 7, (1S,4S)-1,4-dimethyl-7-oxo-5,6-diphenyl-3-(phenylsulfonyl)bicyclo-[2.2.1]hept-5-ene-2-carbaldehyde], for which the “cytotoxicity (cell viability)” value in data set [1] was “no cytotoxicity was observed”.
With `CC12CC([Se]c3ccccc3)C(C)(C1=O)C(c1ccccc1)=C2c1ccccc1` (stereo not drawn) [Compound 10, 1,4-dimethyl-2,3-diphenyl-5-(phenylselanyl)bicyclo[2.2.1]hept-2-en-7-one], the “half-life of selenoxide elimination / CO release” value in data set [2] (20 µM, pH 7.4) is recorded as “around 4 h”. Further, the “time to finish the oxidation step” value in data set [2] (initial hypochlorite concentration of 40 μM, 37° C.) was 30 s.
As for `Cc1ccc(C)c(-c2ccccc2)c1-c1ccccc1` [Compound 10a, 3′,6′-Dimethyl-1,1′:2′,1″-terphenyl], the “synergistic effects with Dox in killing Hela cells” value in data set [3] (Hela cells) was “no synergistic effects were observed”.
Take `COC(=O)C1([Se]c2ccccc2)CC2(C)C(=O)C1(C)C(c1ccccc1)=C2c1ccccc1` (stereo not drawn) [Compound 11, Methyl-1,4-dimethyl-7-oxo-5,6-diphenyl-2-(phenylselanyl)bicyclo[2.2.1]hept-5-ene-2-carboxylate]: the “synergistic effects with Dox in killing H9C2 cells” value in data set [4] (H9C2 cells, co-treatment with Dox, 24 h) is reported as “no synergistic effects were observed”. Also, the “intracellular CO release (green fluorescence) with LPS vs without LPS” value in data set [5] is reported as “significantly enhanced green fluorescence”. Also, the “intracellular CO release” value in data set [6] is “negligible CO release”. In addition, the “intracellular CO release (green fluorescence) compared with H9C2 cells” value in data set [7] is recorded as “much enhanced green fluorescence”. For the same compound, the “transformation within 30 min” value in [8] (hydrogen peroxide (H2O2, 1 mM), 37° C.) is on record as “less than 5%”; in data set [8] (hydroxyl radical (HO., 500 μM), 37° C.), “less than 5%”; in data set [8] (tert-butoxy radical (tBuO·, 500 μM), 37° C.) it was “less than 5%”; in [8] (tert-butyl hydroperoxide (TBHP, 500 μM), 37° C.), “less than 5%”. Moreover, the “time to complete transformation from 11 to 11a” value in [8] (hypochlorite (40 μM) at 37° C.) turned out to be 30 min. Moreover, in data set [8] (hypochlorite (ClO−), singlet oxygen (1O2) and O2−, 37° C.), the “sensitivity towards ROS” value is recorded as “very sensitive”. Further, the “formation of 11a” value in [9] (absence of hypochlorite, 48 h of incubation) is “no formation of 11a was observed”. Besides, the half-life at 20 µM in data set [2] (pH 7.4) was ~30 s. Besides, in data set [3] (Hela cells), the “synergistic effects with Dox in killing Hela cells” value was “synergistically”. In addition, the “cell viability, compound only” value in [10] was “no decrease in cell viability was observed”.
For `COC(=O)c1cc(C)c(-c2ccccc2)c(-c2ccccc2)c1C` [Compound 11a, Methyl 3′,6′-dimethyl-[1,1′:2′,1″-terphenyl]-4′-carboxylate], the “synergistic effects with Dox in killing Hela cells” value in [3] (Hela cells) is given as “no synergistic effects were observed”.
The same measure, in the same setting: to `COC(=O)C1([Se]c2ccccc2)CC2(C)CC1(C)C(c1ccccc1)=C2c1ccccc1` (stereo not drawn) [Compound 11b, methyl 1,4-dimethyl-5,6-diphenyl-2-(phenylselanyl)bicyclo-[2.2.1]hept-5-ene-2-carboxylate, reference compound] belongs “no synergistic effects were observed”.
Turning to `CC12CC([Se]c3ccccc3)(C(=O)NCCC[P+](c3ccccc3)(c3ccccc3)c3ccccc3)C(C)(C1=O)C(c1ccccc1)=C2c1ccccc1` (stereo not drawn) [Compound 12, (3-(1,4-dimethyl-7-oxo-5,6-diphenyl-2-(phenylselanyl)bicyclo [2.2.1]hept-5-ene-2-carboxamido)propyl)triphenylphosphonium], the “cytotoxicity against H9C2 cells” value in data set [4] (5 μM, 24 h of incubation) is “showed toxicity”. In addition, the “stability in the absence of ROS” value in data set [9] (10% ACN in PBS (pH 7.4), 37° C., 48 hours) is “very stable”. Moreover, in data set [3] (Hela cells, 2 μM Dox in combination with 12 (2.5 μM)), the cell viability result is listed as “around 20%”. Moreover, the “synergistic effects with Dox in killing Hela cells” value in [3] (Hela cells) is given as “synergistically”. Further, the “cell viability, compound only” value in [3] (Hela cells, without Dox (0-μM group)) is “no decrease in cell viability was observed”.
For `CC(=O)OC(OC(C)=O)C1C(S(=O)(=O)c2ccccc2)[C@]2(C)C(=O)[C@]1(C)C(c1ccccc1)=C2c1ccccc1` (stereo partly drawn) [Compound 24a, ((1S,4S)-1,4-Dimethyl-7-oxo-5,6-diphenyl-3-(phenylsulfonyl)bicyclo [2.2.1]hept-5-en-2-yl)methylene diacetate], the “time to total consumption of prodrug (to form compound 23)” value in [11] (porcine liver esterase (3 U/mL), 5% of DMSO in PBS (pH 7.4), 37° C.) is reported as ≤ 2 min.
Turning to `CC(C)(C)C(=O)OC(OC(=O)C(C)(C)C)C1C(S(=O)(=O)c2ccccc2)[C@]2(C)C(=O)[C@]1(C)C(c1ccccc1)=C2c1ccccc1` (stereo partly drawn) [Compound 24d, ((1S,4S)-1,4-Dimethyl-7-oxo-5,6-diphenyl-3-(phenylsulfonyl)bicyclo [2.2.1]hept-5-en-2-yl)methylene bis(2,2-dimethylpropanoate)], in [11] (in the presence of PLE, after 24 h of incubation), the esterase-mediated hydrolysis result was “no hydrolysis was observed”.
Turning to `CCCCCSC1C(C=O)C2(C)C(=O)C1(C)C(c1ccccc1)=C2c1ccccc1` (stereo not drawn) [Compound 38], the half-life at 20 µM in data set [12] (20% DMSO in PBS with H2O2 (270 µM), H2O2 (270 μM)) was ~1.5 h; in data set [12] (20% DMSO in PBS, without H2O2), ~24 h.
Regarding `COc1cccc2c1C(=O)c1c(O)c3c(c(O)c1C2=O)C[C@@](O)(C(=O)CO)C[C@@H]3O[C@H]1C[C@H](N)[C@H](O)[C@H](C)O1` [Dox, doxorubicin, reference compound], the viability at 2 µM in data set [3] (Homo sapiens, HeLa, read-out: cell viability) was ~80%.
